According to patent WO2007139036A1, “Compound for controlling endoplasmic reticulum stress, and pharmaceutical composition comprising the compound as active ingredient” (Meiji Dairies Corp, priority 2006, dated 2007):

Assays:
GRP78 = GRP78 expression by Northern blot, MIN6 cells; type: cell-based, mouse
MIN6 cells [1] = test: Secondary screening: oxidative stress (H2O2)-derived cell death suppression, MIN6 cells; type: cell-based, mouse; design: key to oxidative stress-derived cell death inhibitory effect (class symbol): 一: 細胞死抑制効果無し; +: その中間程度の抑制効果を有する; ++: ダントロ レンの細胞死抑制効果と同程度; settings: H2O2 66 μM, 24 h; for oxidative stress-derived cell death inhibitory effect, compared with N-acetylcysteine (NAC): NAC 1000 μM
heme-oxygenase 1 (HO-1) = test: HO-1 expression by Northern blot, MIN6 cells; type: cell-based, mouse
MIN6 cells [2] = test: Intracellular protein synthesis by metabolic labeling (35S-Met), MIN6 cells; type: cell-based, mouse; settings: incubated for more than 24 hours
[3] = system: kidney (proximal) tubule cells; test: Third screening: mouse endoplasmic reticulum stress model (tunicamycin), kidney tubules, HE and TUNEL; type: in vivo; settings: 10 mg/kg/day intraperitoneal daily for 4 days before tunicamycin 1 mg/kg
[4] = system: rat Parkinson disease model; settings: cited from earlier work
XBP1 = XBP1 activation by RT-PCR, MIN6 cells; type: cell-based, mouse
CHOP = CHOP expression by Northern blot, MIN6 cells; type: cell-based, mouse
[5] = other models; cited from earlier work
[6] = Patent Document 1 (JP 2005-247728); cited from earlier work
[7] = pre-administration from 24 h before H2O2 and simultaneous administration

In the case of `COc1ccc(-c2cc(=O)c3c(OC)c(OC)c(OC)c(OC)c3o2)cc1` [IN19, tangeretin], the “expression of GRP78” value (GRP78) is reported as “at least not increased”, the “oxidative stress-derived cell death inhibitory effect, compared with N-acetylcysteine (NAC)” value (MIN6 cells [1]) is reported as “効果はやや小さかった” and the “oxidative stress-derived cell death inhibitory effect, compared with α-tocopherol and β-carotene” value (MIN6 cells [1]; [7]) is reported as “同程度の効果が認められた”. For the same compound, the “expression of heme-oxygenase 1 (HO-1)” value (heme-oxygenase 1 (HO-1)) was “also increased”, the “intracellular protein synthesis (decreased to)” value (MIN6 cells [2]) was “about 60%” and the “tissue damage in renal tubules” value ([3]; kidney on day 4 after tunicamycin) was “ほぼ完全に抑制された”. The “cell death in renal tubules” value ([3]; kidney on day 4 after tunicamycin (TUNEL)) was “ほぼ完全に抑制された”, the neuroprotective activity [4] was “neuroprotective” and the “activation of XBP1” value (XBP1) was “involves administration of IN19”. The “expression of CHOP” value (CHOP) was “also increased”.
In the case of `COc1ccc(-c2cc(=O)c3c(OC)c(OC)c(OC)c(OC)c3o2)cc1OC` [IN69, nobiletin], the neuroprotective activity [5] is listed as “neuroprotective” and the “oxidative stress-derived cell death inhibitory effect (class symbol)” value (MIN6 cells [1]; [7]) is listed as “士”.
For `COc1ccc(-c2cc(=O)c3c(OC)c(OC)c(OC)cc3o2)cc1OC` [IN88, sinensetin], the “oxidative stress-derived cell death inhibitory effect, compared with N-acetylcysteine (NAC)” value (MIN6 cells [1]) was “効果はやや小さかった” and the “oxidative stress-derived cell death inhibitory effect, compared with α-tocopherol and β-carotene” value (MIN6 cells [1]; [7]) was “同程度の効果が認められた”.
In the case of `O=c1cc(-c2ccccc2)oc2ccccc12` [flavone], the “oxidative stress-derived cell death inhibitory effect, compared with N-acetylcysteine (NAC)” value (MIN6 cells [1]) is reported as “効果はやや小さかった” and the “oxidative stress-derived cell death inhibitory effect, compared with α-tocopherol and β-carotene” value (MIN6 cells [1]; [7]) is reported as “同程度の効果が認められた”.
For `CCCCCC=CCC=CCCCCCCCC(=O)OCC(COP(=O)(O)OCCN)OC(=O)CCCCCCCC=CCC=CCCCCC` (stereo not drawn) [ジリノレオイルホスファチジルエタノールァミン, dilinoleoylphosphatidylethanolamine], the “cell death induction suppressing activity” value [6] is given as “細胞死誘導抑制活性” and the “endoplasmic reticulum stress suppressing activity” value [6] is given as “小胞体ストレス抑制活性”.
